The assay relates to Carbonic Anhydrase. Put plainly: Evaluation of Hydrochlorothiazide binding capacity by surface plasmon resonance on CA captured on an Anti-CA-immobilized chip. The conditions noted are these: two minutes after start of replacement. How it is done: The following experiment was carried out using a device shown in FIG. 22 of Japanese Patent Laid-Open No. 2001-330560 (hereinafter referred to as the surface plasmon resonance measurement device of the present invention) (shown in FIG. 1 of the present specification) and a dielectric block shown in FIG. 23 of Japanese Patent Laid-Open No. 2001-330560 (hereinafter referred to as the dielectric block of the present invention) (shown in FIG. 2 of the present specification).
After solutions were removed from the above dextran measuring chip, 70 μl of a mixture solution of 200 mM EDC (N-ethyl-N′-(3-dimethylaminopropyl)carbodiimide hydrochloride) and 50 mM NHS (N-hydroxysuccinimide) was added and the chip was then allowed to stand for 10 minutes. After the mixture solution was removed, the chip was washed three times with 100 μl of water and three times with 100 μl of Acetate 4.5 buffer (produced by Biacore). The chip filled with 100 μl of Acetate 4.5 buffer was set on the surface plasmon resonance measurement device of the present invention. The inside of the chip was replaced with anti-Carbonic Anhydrase antibody (hereafter referred to as Anti-CA, which was purchased from COSMO BIO Co., Ltd.(NOR)) solution (dissolved in Acetate 4.5 (produced by BIAcore) to […]), and the chip was allowed to stand for 30 minutes for immobilizing the Anti-CA. The inside of the chip was then replaced with 1M ethanolamine solution, and the chip was allowed to stand for 10 minutes. The inside of the chip was washed ten times with 100 μl of Acetate 4.5 buffer, thereby preparing an Anti-CA-immobilized chip. The amount of change in resonance signal due to Anti-CA immobilization was 15,000RU. After the measurement of the signal change, the inside of the Anti-CA-immobilized chip was washed three times with 100μl of 1×PBS (pH7.4) buffer (Wako Pure Chemical Industries, Ltd.).
The dielectric block of the Anti-CA-immobilized chip was then capped with a silicon rubber, thereby preparing a cell with an inner volume of 15 μl. Also, a fluid channel system was prepared by making two 1-mm φ holes in the silicon rubber cap and putting a teflon tube (registered trademark) with an internal diameter of 0.5 mm and an external diameter of 1 mm through the holes. Individual chips with such fluid channel system were set on the surface plasmon resonance measurement device of the present invention.
The inside of the fluid channel system was filled with 1×PBS (pH7.4) buffer. Signal changes were measured at 0.5 seconds intervals with reference to the signal prior to the replacement of the fluid. The inside of the fluid channel system was then replaced with Carbonic Anhydrase (produced by SIGMA, hereinafter referred to as CA) solution (dissolved in 1×PBS (pH7.4) to 100 μg/ml). When the binding signal reached 3,000RU, the inside was replaced with Hydrochlorothiazide (produced by SIGMA) solution (dissolved in 1×PBS (pH7.4) to 50 μM) by the individual methods indicated in Table 1. […] In order to obtain highly reliable data, it is preferable that the compound binding detection signal be 5RU or more.

Take `NS(=O)(=O)c1cc2c(cc1Cl)NCNS2(=O)=O` [Hydrochlorothiazide]: the Signal change by setting is: (Method No. 1 (Example): 50 μM in 1×PBS pH7.4, fluid 100 μl, flow 100 μl/sec, replacement 1 sec, stop 119 sec) 15 RU; (Method No. 2 (Example): 50 μM in 1×PBS pH7.4, fluid 100 μl, flow 10 μl/sec, replacement 10 sec, stop 110 sec) 12 RU; (Method No. 3 (Example): 50 μM in 1×PBS pH7.4, fluid 150 μl, flow 5 μl/sec, replacement 30 sec, stop 90 sec) 10 RU; (Method No. 4 (Example): 50 μM in 1×PBS pH7.4, fluid 200 μl, flow 20 μl/sec, replacement 10 sec, stop 110 sec) 10 RU; (Method No. 5 (Comparative example): 50 μM in 1×PBS pH7.4, fluid 300 μl, flow 2.5 μl/sec, replacement 120 sec, stop 0 sec) −1 RU; (Method No. 6 (Comparative example): 50 μM in 1×PBS pH7.4, fluid 600 μl, flow 5 μl/sec, replacement 120 sec, stop 0 sec) −4 RU. The Signal change is, setting by setting: (Method No. 7 (Comparative example): 50 μM in 1×PBS pH7.4, fluid 1200 μl, flow 10 μl/sec, replacement 120 sec, stop 0 sec) −10 RU; (Method No. 8 (Comparative example): 50 μM in 1×PBS pH7.4, fluid 2400 μl, flow 20 μl/sec, replacement 120 sec, stop 0 sec) −20 RU.
